System: Wistar rats
Experiment: Postprandial maximum increase of blood glucose in rat after oral administration of cooked white rice and triolein
Assay type: in vivo
Conditions: for Postprandial maximum increase of blood glucose (maximum increase value from initial value, relative value based on 100 for control group): with 2 mg white rice and 1.5 μg triolein per g body weight, fasted male Wistar rats, average±standard error
Method: To white rice (Koshihikari produced in Tochigi prefecture), water (1.5 times equivalent to the volume of the white rice) was added to allow the rice to absorb the water for 30 minutes. Then, the rice was cooked with a rice cooker (ZOJIRUSHI microcomputer-controlled rice cooker NS-KG05, manufactured by Zojirushi Corporation). Water and triolein (manufactured by Sigma-Aldrich Corporation) were added to the cooked rice, followed by homogenization until the mixture was sufficiently homogenized, thereby yielding a sample for administration. The sample for administration was orally probe-administered to a group at 2 mg of white rice per g body weight and 1.5 μg of triolein per g body weight (the group as a control group). Each of the purified cycloartenol produced in Example 1 described above was added to a sample for administration (dissolved in triolein). Each of the resultants was orally probe-administered to a group at 2 mg of white rice per g body weight, 1.5 μg of triolein per g body weight, and 0.075 μg, or 0.15 μg, of cycloartenol equivalent per g body weight (the groups as Test group 1 and 2). Further, purified 24-methylenecycloartanol was added to a sample for administration (dissolved in triolein). The resultant was orally probe-administered to a group at 2 mg of white rice per g body weight, 1.5 μg of triolein per g body weight, and 0.15 μg of 24-methylenecycloartanol equivalent per g body weight (the group as Comparative group).
8-week old male Wistar rats (supplied by Japan SLC Inc.), after 15 hours of fasting, were divided into groups each consisting of 10 rats with their body weight being almost the same between the groups. Immediately after the administration to each group, blood sample was collected from tail vein sequentially. The blood sample was measured for its blood glucose level by using ACCU-CHEK AVIVA (manufactured by Roche Diagnostics GmbH) to calculate the maximum increase of blood glucose.
Results are represented as average±standard error, and statistical significant differences between groups were determined by the Dunnett's test with respect to the control group (*p <0.05).

[1] = 0.15 μg per g body weight, *p<0.05 vs control (Dunnett)

SMILES | Postprandial maximum increase of blood glucose (maximum increase value from initial value, relative value based on 100 for control group) [1] | postprandial increase of blood glucose (result in words) (0.075 μg per g body weight, rat) | Postprandial maximum increase of blood glucose (maximum increase value from initial value, relative value based on 100 for control group) (0.075 μg per g body weight) | postprandial increase of blood glucose (result in words) (0.15 μg per g body weight, rat) | effect of inhibiting the postprandial increase of blood glucose compared with 24-methylenecycloartanol (rat, comparison at 0.15 μg per g body weight)
C=C(CC[C@@H](C)[C@H]1CC[C@@]2(C)[C@@H]3CC[C@H]4C(C)(C)[C@@H](O)CC[C@@]45C[C@@]35CC[C@]12C)C(C)C [24-methylenecycloartanol, reference compound] | 89.25 ± 4.32 relative value based on 100 for control group | – | – | – | –
CC(C)=CCC[C@@H](C)[C@H]1CC[C@@]2(C)[C@@H]3CC[C@H]4C(C)(C)[C@@H](O)CC[C@@]45C[C@@]35CC[C@]12C [cycloartenol] | 79.74 ± 7.71* relative value based on 100 for control group | tended to be decreased | 92.03 ± 3.16 relative value based on 100 for control group | significantly inhibited | stronger than that of 24-methylenecycloartanol
